Each structure is given as a SMILES string. Where a SMILES comes first, the peptide text is derived from it. [ ]: non-standard residue; d: D form. The star is where a group is joined. Ac6c = NC1(C(=O)O)CCCCC1; X1 = CCCN1C(=O)CC(*)C1=O; Hexanoyl = CCCCCC(=O)*

The nature of data set [1]: Human plasma half-life assay (LC-MS). In kind it is in vitro ADME. Particulars: incubated at 37° C., read-out: Human Plasma T½ (converted). Summed up: (§1)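 Aliquots taken from human or rat plasma at time points up to 72 h, quenched with formic acid and acetonitrile, centrifuged. Supernatant analyzed by LC-MS (ESI, positive ion, full scan) on a C8 column with a water/acetonitrile 1% formic acid gradient.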

The nature of data set [2]: Rat plasma half-life assay (LC-MS). Particulars: incubated at 37° C., read-out: Rat Plasma T½ (converted). Format: in vitro ADME. Summed up: as §1

Consider `CC[C@H](C)[C@H](NC(=O)[C@H](CO)NC(=O)[C@H](Cc1ccc(O)cc1)NC(=O)[C@H](CC(=O)O)NC(=O)[C@H](CO)NC(=O)C1(NC(=O)[C@H](Cc2ccccc2)NC(C)=O)CCCCC1)C(=O)N[C@@H](C)C(=O)N[C@@H](CCSC)C(=O)N[C@@H](CC(=O)O)C(=O)N[C@@H](CCCCN)C(=O)N[C@H](C(=O)N[C@@H](Cc1c[nH]cn1)C(=O)N[C@@H](CCC(N)=O)C(=O)N[C@@H](CCC(N)=O)C(=O)N[C@@H](CC(=O)O)C(=O)N[C@@H](Cc1ccccc1)C(=O)N[C@H](C(=O)N[C@@H](CC(N)=O)C(=O)N[C@@H](Cc1c[nH]c2ccccc12)C(=O)N[C@@H](CC(C)C)C(=O)N[C@@H](CC(C)C)C(=O)N[C@@H](C)C(=O)N[C@@H](CCC(N)=O)C(=O)N[C@@H](CCCCN)C(N)=O)C(C)C)[C@@H](C)CC` [Example 32, (Ac-Phe^6, A6c^7)hGIP(6-30)-NH2], for which the half-life at 0.1 mg/mL is 24.1 h in data set [1] and 60.3 h in data set [2].
Consider `CCCN1C(=O)CC(SC[C@H](NC(=O)[C@H](CC(=O)O)NC(=O)[C@H](CC(N)=O)NC(=O)[C@H](CCCCN)NC(=O)[C@H](CCCCN)NC(=O)CNC(=O)[C@H](CCCCN)NC(=O)[C@H](CCC(N)=O)NC(=O)[C@H](C)NC(=O)[C@H](CC(C)C)NC(=O)[C@H](CC(C)C)NC(=O)[C@H](Cc2c[nH]c3ccccc23)NC(=O)[C@H](CC(N)=O)NC(=O)[C@@H](NC(=O)[C@H](Cc2ccccc2)NC(=O)[C@H](CC(=O)O)NC(=O)[C@H](CCC(N)=O)NC(=O)[C@H](CCC(N)=O)NC(=O)[C@H](Cc2c[nH]cn2)NC(=O)[C@@H](NC(=O)[C@H](CCCCN)NC(=O)[C@H](CC(=O)O)NC(=O)[C@H](CCSC)NC(=O)[C@H](C)NC(=O)[C@@H](NC(=O)[C@H](CO)NC(=O)[C@H](Cc2ccc(O)cc2)NC(=O)[C@H](CC(=O)O)NC(=O)[C@H](CO)NC(=O)C2(NC(C)=O)CCCCC2)[C@@H](C)CC)[C@@H](C)CC)C(C)C)C(=O)N[C@@H](CCCCN)C(=O)N[C@@H](Cc2c[nH]cn2)C(=O)N[C@@H](CC(N)=O)C(=O)N[C@H](C(=O)N[C@H](C(=O)N[C@@H](CCC(N)=O)C(=O)O)[C@@H](C)O)[C@@H](C)CC)C1=O` (stereo partly shown) [Example 5, [Ac-A6c^7, Cys(Psu)^36]hGIP(7-42)-OH] (Ac-[Ac6c]SDYSIAMDKIHQQDFVNWLLAQKGKKNDC(X1)KHNITQ-OH), for which the half-life at 0.1 mg/mL was 7.8 h in data set [1] and 8.5 h in data set [2].
Take `CCCCCC(=O)N[C@@H](CO)C(=O)N[C@@H](CC(=O)O)C(=O)N[C@@H](Cc1ccc(O)cc1)C(=O)N[C@@H](CO)C(=O)N[C@H](C(=O)N[C@@H](C)C(=O)N[C@@H](CCSC)C(=O)N[C@@H](CC(=O)O)C(=O)N[C@@H](CCCCN)C(=O)N[C@H](C(=O)N[C@@H](Cc1c[nH]cn1)C(=O)N[C@@H](CCC(N)=O)C(=O)N[C@@H](CCC(N)=O)C(=O)N[C@@H](CC(=O)O)C(=O)N[C@@H](Cc1ccccc1)C(=O)N[C@H](C(=O)N[C@@H](CC(N)=O)C(=O)N[C@@H](Cc1c[nH]c2ccccc12)C(=O)N[C@@H](CC(C)C)C(=O)N[C@@H](CC(C)C)C(=O)N[C@@H](C)C(=O)N[C@@H](CCC(N)=O)C(=O)N[C@@H](CCCCN)C(=O)N[C@@H](CSC1CC(=O)N(CCC)C1=O)C(=O)N[C@@H](CCCCN)C(=O)N[C@@H](CCCCN)C(=O)N[C@@H](CC(N)=O)C(=O)N[C@@H](CC(=O)O)C(=O)N[C@@H](Cc1c[nH]c2ccccc12)C(=O)N[C@@H](CCCCN)C(=O)N[C@@H](Cc1c[nH]cn1)C(=O)N[C@@H](CC(N)=O)C(=O)N[C@H](C(=O)N[C@H](C(=O)N[C@@H](CCC(N)=O)C(=O)O)[C@@H](C)O)[C@@H](C)CC)C(C)C)[C@@H](C)CC)[C@@H](C)CC` (stereo partly shown) [Example 41, [CH3-(CH2)4-C(O)-Ser^8, Cys(Psu)^31]hGIP(8-42)-OH] (Hexanoyl-SDYSIAMDKIHQQDFVNWLLAQKC(X1)KKNDWKHNITQ-OH): the half-life at 0.1 mg/mL is 5.9 h in data set [1] and 3.7 h in data set [2].
The corresponding values for `CCCN1C(=O)CC(SC[C@H](NC(=O)[C@H](CC(N)=O)NC(=O)[C@H](CCCCN)NC(=O)[C@H](CCCCN)NC(=O)CNC(=O)[C@H](CCCCN)NC(=O)[C@H](CCC(N)=O)NC(=O)[C@H](C)NC(=O)[C@H](CC(C)C)NC(=O)[C@H](CC(C)C)NC(=O)[C@H](Cc2c[nH]c3ccccc23)NC(=O)[C@H](CC(N)=O)NC(=O)[C@@H](NC(=O)[C@H](Cc2ccccc2)NC(=O)[C@H](CC(=O)O)NC(=O)[C@H](CCC(N)=O)NC(=O)[C@H](CCC(N)=O)NC(=O)[C@H](Cc2c[nH]cn2)NC(=O)[C@@H](NC(=O)[C@H](CCCCN)NC(=O)[C@H](CC(=O)O)NC(=O)[C@H](CCSC)NC(=O)[C@H](C)NC(=O)[C@@H](NC(=O)[C@H](CO)NC(=O)[C@H](Cc2ccc(O)cc2)NC(=O)[C@H](CC(=O)O)NC(=O)[C@H](CO)NC(=O)C2(NC(C)=O)CCCCC2)[C@@H](C)CC)[C@@H](C)CC)C(C)C)C(=O)N[C@@H](Cc2c[nH]c3ccccc23)C(=O)N[C@@H](CCCCN)C(=O)N[C@@H](Cc2c[nH]cn2)C(=O)N[C@@H](CC(N)=O)C(=O)N[C@H](C(=O)N[C@H](C(=O)N[C@@H](CCC(N)=O)C(=O)O)[C@@H](C)O)[C@@H](C)CC)C1=O` (stereo partly shown) [Example 6, [Ac-A6c^7, Cys(Psu)^35]hGIP(7-42)-OH] (Ac-[Ac6c]SDYSIAMDKIHQQDFVNWLLAQKGKKNC(X1)WKHNITQ-OH) are 8 h and 3.2 h.
Taken in the same sequence, the figures for `CC[C@H](C)[C@H](NC(=O)[C@H](CO)NC(=O)[C@H](Cc1ccc(O)cc1)NC(=O)[C@H](CC(=O)O)NC(=O)[C@H](CO)NC(=O)[C@@H](NC(=O)[C@H](Cc1ccccc1)NC(=O)[C@@H](NC(=O)CNC(=O)[C@H](CCC(=O)O)NC(=O)CCc1ccc(O)cc1)[C@@H](C)O)[C@@H](C)CC)C(=O)N[C@@H](C)C(=O)NC1(C(=O)N[C@@H](CC(=O)O)C(=O)N[C@@H](CCCCN)C(=O)N[C@H](C(=O)N[C@@H](Cc2c[nH]cn2)C(=O)N[C@@H](CCC(N)=O)C(=O)N[C@@H](CCC(N)=O)C(=O)N[C@@H](CC(=O)O)C(=O)N[C@@H](Cc2ccccc2)C(=O)N[C@H](C(=O)N[C@@H](CC(N)=O)C(=O)N[C@@H](Cc2c[nH]c3ccccc23)C(=O)N[C@@H](CC(C)C)C(=O)N[C@@H](CC(C)C)C(=O)N[C@@H](C)C(=O)N[C@@H](CCC(N)=O)C(=O)N[C@@H](CCCCN)C(=O)NCC(=O)N[C@@H](CCCCN)C(=O)N[C@@H](CCCCN)C(=O)N[C@@H](CC(N)=O)C(=O)N[C@@H](CC(=O)O)C(=O)N[C@@H](Cc2c[nH]c3ccccc23)C(=O)N[C@@H](CCCCN)C(=O)N[C@@H](Cc2c[nH]cn2)C(=O)N[C@@H](CC(N)=O)C(=O)N[C@H](C(=O)N[C@H](C(=O)N[C@@H](CCC(N)=O)C(=O)O)[C@@H](C)O)[C@@H](C)CC)C(C)C)[C@@H](C)CC)CCCCC1` [Example 45, (4Hppa^2, A6c^14)hGIP(2-42)-OH] were 64.2 h and 4.3 h.

For the origin of these results see patent publication US8450266B2 (Ipsen Pharma S.A.S., priority 2008, dated 2013).
